This data set in a line: Conditions under which the crystal forms exist stably. In kind it is physicochemical.
With `C[C@@H]1O[C@@H](O[C@H]2[C@H](O[C@H]3CC[C@]4(C)[C@H]5C[C@H](O)C6=C7[C@]8(CC[C@](C)(OC8=O)[C@@]7(C)O)CC[C@@]6(C)[C@]5(C)CC[C@H]4C3(C)C)OC[C@H](O)[C@@H]2O[C@@H]2O[C@H](CO)[C@@H](O)[C@H](O)[C@H]2O)[C@H](O)[C@H](O)[C@H]1O` [crystal form D, Kudinoside A], the “conditions under which the crystal form exists stably” value (“conditions” below) is given as “can only exist stably when the sample is wet”. In the case of `C[C@@H]1O[C@@H](O[C@H]2[C@H](O[C@H]3CC[C@]4(C)[C@H]5C[C@H](O)C6=C7[C@]8(CC[C@](C)(OC8=O)[C@@]7(C)O)CC[C@@]6(C)[C@]5(C)CC[C@H]4C3(C)C)OC[C@H](O)[C@@H]2O[C@@H]2O[C@H](CO)[C@@H](O)[C@H](O)[C@H]2O)[C@H](O)[C@H](O)[C@H]1O` [crystal form I2, Kudinoside A] it was “cannot exist stably”.

Regarding `C[C@@H]1O[C@@H](O[C@H]2[C@H](O[C@H]3CC[C@]4(C)[C@H]5C[C@H](O)C6=C7[C@]8(CC[C@](C)(OC8=O)[C@@]7(C)O)CC[C@@]6(C)[C@]5(C)CC[C@H]4C3(C)C)OC[C@H](O)[C@@H]2O[C@@H]2O[C@H](CO)[C@@H](O)[C@H](O)[C@H]2O)[C@H](O)[C@H](O)[C@H]1O` [crystal form E, Kudinoside A], the “conditions” value is listed as “can only exist stably when the sample is wet”. With `C[C@@H]1O[C@@H](O[C@H]2[C@H](O[C@H]3CC[C@]4(C)[C@H]5C[C@H](O)C6=C7[C@]8(CC[C@](C)(OC8=O)[C@@]7(C)O)CC[C@@]6(C)[C@]5(C)CC[C@H]4C3(C)C)OC[C@H](O)[C@@H]2O[C@@H]2O[C@H](CO)[C@@H](O)[C@H](O)[C@H]2O)[C@H](O)[C@H](O)[C@H]1O` [crystal form L, Kudinoside A] the entry was “can only exist stably at high temperature”.

With `C[C@@H]1O[C@@H](O[C@H]2[C@H](O[C@H]3CC[C@]4(C)[C@H]5C[C@H](O)C6=C7[C@]8(CC[C@](C)(OC8=O)[C@@]7(C)O)CC[C@@]6(C)[C@]5(C)CC[C@H]4C3(C)C)OC[C@H](O)[C@@H]2O[C@@H]2O[C@H](CO)[C@@H](O)[C@H](O)[C@H]2O)[C@H](O)[C@H](O)[C@H]1O` [crystal form G, Kudinoside A], the “conditions” value was “can only exist stably when the sample is wet”. With `C[C@@H]1O[C@@H](O[C@H]2[C@H](O[C@H]3CC[C@]4(C)[C@H]5C[C@H](O)C6=C7[C@]8(CC[C@](C)(OC8=O)[C@@]7(C)O)CC[C@@]6(C)[C@]5(C)CC[C@H]4C3(C)C)OC[C@H](O)[C@@H]2O[C@@H]2O[C@H](CO)[C@@H](O)[C@H](O)[C@H]2O)[C@H](O)[C@H](O)[C@H]1O` [crystal form B, Kudinoside A] the entry was “can only exist stably at high temperature”.
